Reference: US20230011571A1, “SMALL MOLECULE FURIN INHIBITORS FOR TREATING INFECTIOUS DISEASES” (BP Asset V, Inc., priority 2019, published 2023)

Legend:
Format in all cases: cell-based
[1] = tested on: Chikungunya virus (CHIKV); assay: microbe, parasite or virus in culture; conditions: Chikungunya virus, Vero, 48 h, read-out: Percent viral inhibition CHKV
[2] = tested on: Marburg virus (MARV); assay: organism not typed; conditions: Vero, 72 h, read-out: Percent viral inhibition MARV
[3] = tested on: dengue virus (DENV); assay: microbe, parasite or virus in culture; conditions: Dengue virus, Vero, 120 h, read-out: Percent viral inhibition DENY

Row | SMILES | inhibition at 1 µM [1] | inhibition at 1 µM [2] | inhibition at 1 µM [3]
1 | COC(=O)NCC1CCN(Cc2cc(Oc3cnc(N4CC5CCC(C4)N5CCC(=O)O)nc3)nc(-c3cc(Cl)cc(Cl)c3)c2)CC1 [Example 56, 3-(3-(5-((6-(3,5-dichlorophenyl)-4-((4-(((methoxycarbonyl)amino)methyl)piperidin-1-yl)methyl)pyridin-2-yl)oxy)pyrimidin-2-yl)-3,8-diazabicyclo[3.2.1]octan-8-yl) propanoic acid] | 31.3% | 60.9% | 57.1%
2 | CC(CCN1CCN(c2ncc(Oc3cc(CN4CCC(CCO)CC4)cc(-c4cc(Cl)cc(Cl)c4)n3)cn2)CC1)C(=O)O (stereo not drawn) [Example 57, 4-(4-(5-((6-(3,5-dichlorophenyl)-4-((4-(2-hydroxyethyl)piperidin-1-yl)methyl)pyridin-2-yl)oxy)pyrimidin-2-yl)piperazin-1-yl)-2-methylbutanoic acid] | 21.1% | 54.4% | 37.6%
3 | CCC(=O)NCC1CCN(Cc2cc(Oc3cnc(N4CCN(CCC(C)C(=O)O)CC4)nc3)nc(-c3cc(Cl)cc(Cl)c3)c2)CC1 (stereo not drawn) [Example 59, 4-(4-(5-((6-(3,5-dichlorophenyl)-4-((4-(propionamidomethyl)piperidin-1-yl)methyl)pyridin-2-yl)oxy)pyrimidin-2-yl)piperazin-1-yl)-2-methylbutanoic acid] | 35.1% | 57.5% | 53.7%
4 | CC(O)CCN1CCN(c2ncc(Oc3cc(CN4CCC(F)CC4)cc(-c4cc(Cl)cc(Cl)c4)n3)cn2)CC1 (stereo not drawn) [Example 60, 4-(4-(5-((6-(3,5-dichlorophenyl)-4-((4-fluoropiperidin-1-yl)methyl)pyridin-2-yl)oxy)pyrimidin-2-yl)piperazin-1-yl)butan-2-ol] | 38.8% | 53.6% | 79%
5 | COC(=O)NCC1CCN(Cc2cc(Oc3cnc(N4CCN(CCC(=O)O)CC4)nc3)nc(-c3cc(Cl)cc(Cl)c3)c2)CC1 [Example 62, 3-(4-(5-((6-(3,5-dichlorophenyl)-4-((4-(((methoxycarbonyl)amino)methyl)piperidin-1-yl)methyl)pyridin-2-yl)oxy)pyrimidin-2-yl)piperazin-1-yl)propanoic acid] | 35.2% | 19.9% | 19.1%
6 | COC(=O)NCC1CCN(Cc2cc(Oc3cnc(N4CCN(C)CC4)nc3)nc(-c3cc(Cl)cc(Cl)c3)c2)CC1 [Example 63, methyl((1-((2-(3,5-dichlorophenyl)-6-((2-(4-methylpiperazin-1-yl)pyrimidin-5-yl)oxy)pyridin-4-yl)methyl)piperidin-4-yl)methyl)carbamate] | 0% | 14.7% | 2.35%
7 | CC(=O)NCC1CCN(Cc2cc(Oc3cnc(N4CCN(C)CC4)nc3)nc(-c3cc(Cl)cc(Cl)c3)c2)CC1 [Example 64, N-((1-((2-(3,5-dichlorophenyl)-6-((2-(4-methylpiperazin-1-yl)pyrimidin-5-yl)oxy)pyridin-4-yl)methyl)piperidin-4-yl)methyl)acetamide] | 6.9% | 37.8% | 37%
8 | CNC(=O)OCC1CCN(Cc2cc(Oc3cnc(N4CCN(C)CC4)nc3)nc(-c3cc(Cl)cc(Cl)c3)c2)CC1 [Example 66, (1-((2-(3,5-dichlorophenyl)-6-((2-(4-methylpiperazin-1-yl)pyrimidin-5-yl)oxy)pyridin-4-yl)methyl)piperidin-4-yl)methylmethylcarbamate] | 7.64% | 60.7% | 57.9%
9 | CNC(=O)NCC1CCN(Cc2cc(Oc3cnc(N4CCN(C)CC4)nc3)nc(-c3cc(Cl)cc(Cl)c3)c2)CC1 [Example 70, 1-((1-((2-(3,5-dichlorophenyl)-6-((2-(4-methylpiperazin-1-yl)pyrimidin-5-yl)oxy)pyridin-4-yl)methyl)piperidin-4-yl)methyl)-3-methylurea] | 0% | 5.52% | 0%
10 | CN1CCN(c2ncc(Oc3cc(CN4CCC(Cc5nnn[nH]5)CC4)cc(-c4cc(Cl)cc(Cl)c4)n3)cn2)CC1 [Example 72, 5-((4-((4-((1H-tetrazol-5-yl)methyl)piperidin-1-yl)methyl)-6-(3,5-dichlorophenyl)pyridin-2-yl)oxy)-2-(4-methylpiperazin-1-yl)pyrimidine] | 33.7% | 55.8% | 11.2%
11 | CNC(=O)OCC1CCN(Cc2cc(Oc3ccc(N4CCN(CCC(=O)O)CC4)nc3)nc(-c3cc(Cl)cc(Cl)c3)c2)CC1 [Example 77, 3-(4-(5-((6-(3,5-dichlorophenyl)-4-((4-(((methylcarbamoyl)oxy)methyl)piperidin-1-yl)methyl)pyridin-2-yl)oxy)pyridin-2-yl)piperazin-1-yl) propanoic acid] | 42% | 57.2% | 20.6%
12 | CS(=O)(=O)N[C@H]1[C@@H]2CCN(Cc3cc(Oc4cnc(N5CCN(CCC(=O)O)CC5)nc4)nc(-c4cc(Cl)cc(Cl)c4)c3)CC[C@@H]21 [Example 80, 3-(4-(5-((6-(3,5-dichlorophenyl)-4-(((1R,7S,8r)-8-(methylsulfonamido)-4-azabicyclo[5.1.0]octan-4-yl)methyl)pyridin-2-yl)oxy)pyrimidin-2-yl)piperazin-1-yl)propanoic acid] | 25% | 64.6% | 0%
13 | CC(CCN1CCN(c2ncc(Oc3cc(CN4CC[C@@H]5[C@H](CC4)[C@H]5NS(C)(=O)=O)cc(-c4cc(Cl)cc(Cl)c4)n3)cn2)CC1)C(=O)O (stereo partly drawn) [Example 81, 4-(4-(5-((6-(3,5-dichlorophenyl)-4-(((1R,7S,8r)-8-(methylsulfonamido)-4-azabicyclo[5.1.0]octan-4-yl)methyl)pyridin-2-yl)oxy)pyrimidin-2-yl)piperazin-1-yl)-2-methylbutanoic acid] | 26.1% | 73.7% | 50.5%
14 | CC(=O)N[C@H]1[C@@H]2CCN(Cc3cc(Oc4cnc(N5CCN(CCC(C)C(=O)O)CC5)nc4)nc(-c4cc(Cl)cc(Cl)c4)c3)CC[C@@H]21 (stereo partly drawn) [Example 82, 4-(4-(5-((4-(((1R,7S,8r)-8-acetamido-4-azabicyclo[5.1.0]octan-4-yl)methyl)-6-(3,5-dichlorophenyl)pyridin-2-yl)oxy)pyrimidin-2-yl)piperazin-1-yl)-2-methylbutanoic acid] | 18.4% | 53.2% | 19.8%
15 | CC(CCN1CCN(c2ncc(Oc3cc(CN4CCCC4)cc(-c4cc(Cl)cc(Cl)c4)n3)cn2)CC1)C(=O)O (stereo not drawn) [Example 83, 4-(4-(5-((6-(3,5-dichlorophenyl)-4-(pyrrolidin-1-ylmethyl)pyridin-2-yl)oxy)pyrimidin-2-yl)piperazin-1-yl)-2-methylbutanoic acid] | 33.4% | 53.8% | 28.9%
16 | CN1CCN(c2ncc(Oc3cc(CN4CCC(CCS(N)(=O)=O)CC4)cc(-c4cc(Cl)cc(Cl)c4)n3)cn2)CC1 [Example 87, 2-(1-((2-(3,5-dichlorophenyl)-6-((2-(4-methylpiperazin-1-yl)pyrimidin-5-yl)oxy)pyridin-4-yl)methyl)piperidin-4-yl)ethanesulfonamide] | 16.9% | 30.3% | 30.2%
17 | CC(=O)NCC1CCN(Cc2cc(Oc3cnc(N4CCN(CCC(N)=O)CC4)nc3)nc(-c3cc(Cl)cc(Cl)c3)c2)CC1 [Example 88, 3-(4-(5-((4-((4-(acetamidomethyl)piperidin-1-yl)methyl)-6-(3,5-dichlorophenyl)pyridin-2-yl)oxy)pyrimidin-2-yl)piperazin-1-yl)propanamide] | 10.9% | 58.6% | 54.6%
18 | CC(=O)NCC1CCN(Cc2cc(-c3cc(Cl)cc(Cl)c3)nc(Oc3ccc(N4CCNCC4)nc3)n2)CC1 [Example 90, N-((1-((6-(3,5-dichlorophenyl)-2-((6-(piperazin-1-yl)pyridin-3-yl)oxy)pyrimidin-4-yl)methyl)piperidin-4-yl)methyl)acetamide] | 44.2% | 75.5% | 54.9%
19 | CC(=O)NCC1CCN(Cc2cc(Oc3cnc(N4CCN(CCO)CC4)nc3)nc(-c3cc(Cl)cc(Cl)c3)c2)CC1 [Example 93, N-((1-((2-(3,5-dichlorophenyl)-6-((2-(4-(2-hydroxyethyl)piperazin-1-yl)pyrimidin-5-yl)oxy)pyridin-4-yl)methyl)piperidin-4-yl)methyl)acetamide] | 0% | 10.4% | 56.7%
20 | CNC(=O)CCN1CCN(c2ncc(Oc3cc(CN4CCC(CNC(C)=O)CC4)cc(-c4cc(Cl)cc(Cl)c4)n3)cn2)CC1 [Example 94, 3-(4-(5-((4-((4-(acetamidomethyl)piperidin-1-yl)methyl)-6-(3,5-dichlorophenyl)pyridin-2-yl)oxy)pyrimidin-2-yl)piperazin-1-yl)-N-methylpropanamide] | 31.3% | 66% | 41.5%
21 | CC(=O)NCC1CCN(Cc2cc(Oc3cnc(N4CCN(C(C)CC(N)=O)CC4)nc3)nc(-c3cc(Cl)cc(Cl)c3)c2)CC1 (stereo not drawn) [Example 95] | 46.6% | 59% | 58.1%
22 | CNCc1cc(Oc2ccc(N3CCNCC3)nc2)cc(-c2cc(Cl)cc(Cl)c2)c1 [Example 98, 1-(3′,5′-dichloro-5-((6-(piperazin-1-yl)pyridin-3-yl)oxy)-[1,1′-biphenyl]-3-yl)-N-methylmethanamine] | 0% | 0% | 0%
23 | NCCNc1ccc(Oc2cc(CN3CCOCC3)cc(-c3cc(Cl)cc(Cl)c3)c2)cn1 [Example 99, N1-(5-((3′,5′-dichloro-5-(morpholinomethyl)-[1,1′-biphenyl]-3-yl)oxy)pyridin-2-yl)ethane-1,2-diamine] | 0% | 0% | 15.4%
